The values below come from patent US11634395B2, “Sulfonamide compound or salt thereof” (Taiho Pharmaceutical Co., Ltd., priority 2016, dated 2023).

The term pIC50 denotes −log10 of the IC50, conventionally taken in molar units.

In this experiment the target is Human RNR (human M1 subunit and human M2 subunit) (Homo sapiens (Human), UniProt P23921). In words: Human RNR inhibition effect (formation of dCDP from CDP, HPLC). In kind it is biochemical. The following applies: 10 μM CDP, 37° C. for 30 minutes, read-out: RNR Enzyme inhibitory activity IC50. Here is the method: The inhibitory activity against the ribonucleotide reduction reaction (hereinafter referred to as RNR reaction) of the test compound was determined by measuring the formation of deoxycytidine diphosphate (hereinafter referred to as dCDP) from cytidine diphosphate (hereinafter referred to as CDP) by the following method.
Sequence of Human RNR (human M1 subunit and human M2 subunit) (P23921 whole entry, the tested form may be a part): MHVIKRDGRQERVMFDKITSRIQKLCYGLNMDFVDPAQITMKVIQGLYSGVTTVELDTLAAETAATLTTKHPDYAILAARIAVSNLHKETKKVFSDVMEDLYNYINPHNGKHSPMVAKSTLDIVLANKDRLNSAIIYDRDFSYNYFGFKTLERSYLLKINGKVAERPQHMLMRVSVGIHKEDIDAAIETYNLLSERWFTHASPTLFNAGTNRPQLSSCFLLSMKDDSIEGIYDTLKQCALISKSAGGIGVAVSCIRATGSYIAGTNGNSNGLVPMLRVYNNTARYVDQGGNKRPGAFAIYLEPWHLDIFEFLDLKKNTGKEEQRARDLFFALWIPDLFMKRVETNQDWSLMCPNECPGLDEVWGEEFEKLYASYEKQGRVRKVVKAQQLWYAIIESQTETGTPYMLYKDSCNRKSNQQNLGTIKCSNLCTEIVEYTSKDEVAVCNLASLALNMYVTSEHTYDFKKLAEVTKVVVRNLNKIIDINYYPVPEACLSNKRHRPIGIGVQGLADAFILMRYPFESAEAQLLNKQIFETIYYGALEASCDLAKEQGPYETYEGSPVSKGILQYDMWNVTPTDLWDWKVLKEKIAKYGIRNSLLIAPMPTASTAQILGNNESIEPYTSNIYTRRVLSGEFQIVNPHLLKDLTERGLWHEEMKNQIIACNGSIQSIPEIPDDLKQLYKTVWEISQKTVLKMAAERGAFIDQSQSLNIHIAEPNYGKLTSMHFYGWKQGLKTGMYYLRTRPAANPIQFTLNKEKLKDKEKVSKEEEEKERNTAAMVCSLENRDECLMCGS
Human M1 subunit and human M2 subunit (mutant lacking amino terminal 59 amino acids), which are fused a histidine tag at the amino terminus, are overexpressed in Escherichia coli and are solubilized after collection, and histidine tagged human M1 and M2 proteins were purified on a nickel chelate column.
First, test compounds were serially diluted with DMSO. Next, human M1 protein and human M2 protein were added to an aqueous albumin solution derived from 0.02% fetal bovine serum, a DMSO solution of the compound of the present invention or the control DMSO solution (final concentration of DMSO was 1%) was added, and the mixture was allowed to stand for 20 minutes. Thereafter, the reaction buffer [50 mM HEPES buffer (pH 7.2) at the final concentration, 4 mM magnesium acetate at the final concentration, 100 mM potassium chloride at the final concentration, 6 mM dithiothreitol at the final concentration, 2 mM adenosine triphosphate at the final concentration, 0.24 mM nicotinamide adenine dinucleotide phosphate at final concentration] and 10 μM CDP at the final concentration were added and incubated at 37° C. for 30 minutes to perform RNR reaction. Immediately after the reaction, the reaction was stopped by heating at 100° C. for 15 minutes, followed by centrifugation at 10,000 rpm for 10 minutes. After the centrifugation, a portion (5 μL) of the resulting supernatant was analyzed with a high performance liquid chromatography (Shimadzu Corporation, Prominence) using Shim-pack XR-ODS (manufactured by Shimadzu GLC Co., 3.0×100 mm).

The structures appear in SMILES notation. pIC50: −log10 of the molar value. Like-named read-outs stand apart in the source and are kept apart here.

As to `[2H]C([2H])([2H])C1(O)CCOc2c(S(=O)(=O)N[C@H](c3n[nH]c(=O)o3)[C@H](C)c3c(F)ccc(C)c3C)ccc(Cl)c21` (single isomer, unassigned) [Example 200A], under “human M1 and M2 proteins”, the pIC50 is 7.52.

Turning to `[2H]C([2H])([2H])C1(O)CCOc2c(S(=O)(=O)N[C@H](c3n[nH]c(=O)o3)[C@H](C)c3c(F)ccc(C)c3C)ccc(Cl)c21` (single isomer, unassigned) [Example 200B], the pIC50 (human M1 and M2 proteins) is 7.10.

For the compound `Cc1ccc(F)c([C@@H](C)[C@H](NS(=O)(=O)c2ccc(Cl)c3c2OCCC3(C)O)c2n[nH]c(=O)o2)c1C` (single isomer, unassigned) [Example 207A], the pIC50 (human M1 and M2 proteins) was 6.89.

`Cc1ccc(F)c([C@@H](C)[C@H](NS(=O)(=O)c2ccc(Cl)c3c2OCCC3(C)O)c2n[nH]c(=O)o2)c1C` (single isomer, unassigned) [Example 207B]: the pIC50 (human M1 and M2 proteins) is 7.05.

On to `COc1c(S(=O)(=O)N[C@H](c2n[nH]c(=O)o2)[C@H](C)c2c(F)ccc(C)c2C)ccc(Cl)c1C(C)O` (single isomer, unassigned) [Example 208A], for which the pIC50 (human M1 and M2 proteins) was 7.00.

Take `COc1c(S(=O)(=O)N[C@H](c2n[nH]c(=O)o2)[C@H](C)c2c(F)ccc(C)c2C)ccc(Cl)c1C(C)O` (single isomer, unassigned) [Example 208B]: the pIC50 (human M1 and M2 proteins) is 7.22.

With `Cc1c(Cl)ccc(F)c1[C@@H](C)[C@H](NS(=O)(=O)c1ccc(Cl)c2c1OCCC2(C)O)c1n[nH]c(=O)o1` (single isomer, unassigned) [Example 209A], for the setting “human M1 and M2 proteins”, the pIC50 was 7.00.

For `Cc1c(Cl)ccc(F)c1[C@@H](C)[C@H](NS(=O)(=O)c1ccc(Cl)c2c1OCCC2(C)O)c1n[nH]c(=O)o1` (single isomer, unassigned) [Example 209B], the pIC50 (human M1 and M2 proteins) is 6.74.

As to `Cc1ccc(F)c([C@@H](C)[C@H](NS(=O)(=O)c2ccc(Cl)c3c2OCCC3(O)C(F)(F)F)c2n[nH]c(=O)o2)c1C` (single isomer, unassigned) [Example 220A], the pIC50 (human M1 and M2 proteins) is 7.22.

As to `Cc1ccc(F)c([C@@H](C)[C@H](NS(=O)(=O)c2ccc(Cl)c3c2OCCC3(O)C(F)(F)F)c2n[nH]c(=O)o2)c1C` (single isomer, unassigned) [Example 220B], the pIC50 (human M1 and M2 proteins) was 7.10.

`Cc1c(Br)ccc(F)c1[C@@H](C)[C@H](NS(=O)(=O)c1ccc(Cl)c2c1OCCC2(C)O)c1n[nH]c(=O)o1` (single isomer, unassigned) [Example 222A]: where the note is “human M1 and M2 proteins”, the pIC50 was 7.10.

For `Cc1c(Br)ccc(F)c1[C@@H](C)[C@H](NS(=O)(=O)c1ccc(Cl)c2c1OCCC2(C)O)c1n[nH]c(=O)o1` (single isomer, unassigned) [Example 222B], for the setting “human M1 and M2 proteins”, the pIC50 is 7.22.

For the compound `Cc1ccc(F)c([C@@H](C)[C@H](NS(=O)(=O)c2ccc(F)c3c2OCCC3(C)O)c2n[nH]c(=O)o2)c1C` (single isomer, unassigned) [Example 224B], under “human M1 and M2 proteins”, the negative-log IC50 (pIC50) was 7.00.

For `[2H]C([2H])([2H])C1(O)CCOc2c(S(=O)(=O)N[C@H](c3n[nH]c(=O)o3)[C@H](C)c3c(F)ccc(Br)c3C)ccc(Cl)c21` (single isomer, unassigned) [Example 226A], for the setting “human M1 and M2 proteins”, the negative-log IC50 (pIC50) is 7.30.

Turning to `[2H]C([2H])([2H])C1(O)CCOc2c(S(=O)(=O)N[C@H](c3n[nH]c(=O)o3)[C@H](C)c3c(F)ccc(Br)c3C)ccc(Cl)c21` (single isomer, unassigned) [Example 226B], the pIC50 (human M1 and M2 proteins) is 7.15.

For `Cc1c(Br)ccc(F)c1[C@@H](C)[C@H](NS(=O)(=O)c1ccc(F)c2c1OCCC2(C)O)c1n[nH]c(=O)o1` (single isomer, unassigned) [Example 227A], the pIC50 (human M1 and M2 proteins) was 7.30.

In the case of `Cc1c(Br)ccc(F)c1[C@@H](C)[C@H](NS(=O)(=O)c1ccc(F)c2c1OCCC2(C)O)c1n[nH]c(=O)o1` (single isomer, unassigned) [Example 227B], where the note is “human M1 and M2 proteins”, the negative-log IC50 (pIC50) was 7.05.

`[2H]C([2H])([2H])C1(O)CCOc2c(S(=O)(=O)N[C@H](c3n[nH]c(=O)o3)[C@H](C)c3c(F)ccc(Cl)c3C)ccc(Cl)c21` (single isomer, unassigned) [Example 228A]: the pIC50 (human M1 and M2 proteins) was 7.10.

Take `[2H]C([2H])([2H])C1(O)CCOc2c(S(=O)(=O)N[C@H](c3n[nH]c(=O)o3)[C@H](C)c3c(F)ccc(Cl)c3C)ccc(Cl)c21` (single isomer, unassigned) [Example 228B]: the pIC50 (human M1 and M2 proteins) was 6.85.

Take `Cc1c(Cl)ccc(F)c1[C@@H](C)[C@H](NS(=O)(=O)c1ccc(F)c2c1OCCC2(C)O)c1n[nH]c(=O)o1` (single isomer, unassigned) [Example 229A]: under “human M1 and M2 proteins”, the pIC50 is 7.22.

As for `Cc1c(Cl)ccc(F)c1[C@@H](C)[C@H](NS(=O)(=O)c1ccc(F)c2c1OCCC2(C)O)c1n[nH]c(=O)o1` (single isomer, unassigned) [Example 229B], the negative logarithm of the IC50 (pIC50) (human M1 and M2 proteins) is 6.96.

Take `Cc1ccc(F)c([C@@H](C)[C@H](NS(=O)(=O)c2ccc(F)c3c2OCCC3O)c2n[nH]c(=O)o2)c1C` (single isomer, unassigned) [Example 230A]: where the note is “human M1 and M2 proteins”, the pIC50 is 6.92.

In the case of `Cc1ccc(F)c([C@@H](C)[C@H](NS(=O)(=O)c2ccc(F)c3c2OCCC3O)c2n[nH]c(=O)o2)c1C` (single isomer, unassigned) [Example 230B], for the setting “human M1 and M2 proteins”, the pIC50 was 7.30.

`C[C@H](c1c(F)ccc2ccccc12)[C@H](NS(=O)(=O)c1ccc(Cl)c2c1OCCC2O)c1n[nH]c(=O)o1` (single isomer, unassigned) [Example 234A]: the pIC50 (human M1 and M2 proteins) was 6.51.

Consider `Cc1ccc(F)c([C@@H](C)[C@H](NS(=O)(=O)c2ccc(Cl)c3c2OCCC3O)c2n[nH]c(=O)o2)c1C` (single isomer, unassigned) [Example 235A], for which the pIC50 (human M1 and M2 proteins) was 7.10.

Turning to `Cc1ccc(F)c([C@@H](C)[C@H](NS(=O)(=O)c2ccc(Cl)c3c2OCCC3O)c2n[nH]c(=O)o2)c1C` (single isomer, unassigned) [Example 235B], the negative-log IC50 (pIC50) (human M1 and M2 proteins) is 7.15.

Regarding `Cc1ccc(F)c([C@@H](C)[C@H](NS(=O)(=O)c2cccc3c2OC(C)(C)CC3O)c2n[nH]c(=O)o2)c1C` (single isomer, unassigned) [Example 237A], under “human M1 and M2 proteins”, the pIC50 was 6.54.

Consider `CCc1ccc(F)c([C@@H](C)[C@H](NS(=O)(=O)c2ccc(Cl)c3c2OCCC3O)c2n[nH]c(=O)o2)c1C` (single isomer, unassigned) [Example 239A], for which the pIC50 (human M1 and M2 proteins) is 6.70.

Consider `Cc1c(Br)ccc(F)c1[C@@H](C)[C@H](NS(=O)(=O)c1ccc(Cl)c2c1OCCC2O)c1n[nH]c(=O)o1` (single isomer, unassigned) [Example 243A], for which, under “human M1 and M2 proteins”, the pIC50 is 7.15.

`Cc1c(Br)ccc(F)c1[C@@H](C)[C@H](NS(=O)(=O)c1ccc(Cl)c2c1OCCC2O)c1n[nH]c(=O)o1` (single isomer, unassigned) [Example 243B]: where the note is “human M1 and M2 proteins”, the pIC50 is 7.00.

For `Cc1ccc(F)c([C@@H](C)[C@H](NS(=O)(=O)c2ccc(C(F)(F)F)c3c2OCCC3O)c2n[nH]c(=O)o2)c1C` (single isomer, unassigned) [Example 244A], the pIC50 (human M1 and M2 proteins) was 7.05.

As to `Cc1ccc(F)c([C@@H](C)[C@H](NS(=O)(=O)c2ccc(C(F)(F)F)c3c2OCCC3O)c2n[nH]c(=O)o2)c1C` (single isomer, unassigned) [Example 244B], the pIC50 (human M1 and M2 proteins) is 6.66.

As for `Cc1c(Cl)ccc(F)c1[C@@H](C)[C@H](NS(=O)(=O)c1ccc(Cl)c2c1OCCC2(C)N)c1n[nH]c(=O)o1` (single isomer, unassigned) [Example 330A], for the setting “human M1 and M2 proteins”, the pIC50 was 6.92.

For the compound `Cc1c(Cl)ccc(F)c1[C@@H](C)[C@H](NS(=O)(=O)c1ccc(Cl)c2c1OCCC2(C)N)c1n[nH]c(=O)o1` (single isomer, unassigned) [Example 330B], where the note is “human M1 and M2 proteins”, the pIC50 is 6.34.

With `C=C(c1c(F)ccc(C)c1C)[C@H](NS(=O)(=O)c1ccc(Cl)cc1OC)c1n[nH]c(=O)o1` [Example 185, (S)-4-chloro-N-(2-(6-fluoro-2,3-dimethylphenyl)-1-(5-oxo-4,5-dihydro-1,3,4-oxadiazol-2-yl)allyl)-2-methoxybenzenesulfonamide], under “human M1 and M2 subunits, formation of dCDP from CDP”, the negative logarithm of the IC50 (pIC50) is 6.22.

Turning to `Cc1c(Cl)ccc(F)c1[C@@H](C)[C@H](NS(=O)(=O)c1ccc(Cl)c2c1OCCC2O)c1n[nH]c(=O)o1` (stereo partly drawn) [Example 238A, 5-chloro-N-((1S,2R)-2-(3-chloro-6-fluoro-2-methylphenyl)-1-(5-oxo-4,5-dihydro-1,3,4-oxadiazol-2-yl)propyl)-4-hydroxychroman-8-sulfonamide], the pIC50 (human M1 and M2 proteins) is 6.96.
